In patent US20220304957A1, “ANTI-CANCER COMPOSITIONS AND METHODS OF USE” (Board of Supervisors of Louisiana State University and …, priority 2019, published 2022):

Experiments:
[1] = cited from earlier work
[2] = Temozolomide pharmacokinetics and CNS penetration (literature); assay type: in vivo, human; settings: from 20% of plasma concentration
Excerpt: An efficient treatment of GBM is difficult to develop for a series of reasons. First, GBM is characterized by many dysregulated pathways that can hardly be all blocked and repaired at the same time with a single therapy [Alifieris, C.; Trafalis, D. T. “Glioblastoma multiforme: pathogenesis and treatment” Pharmacol. Ther. 2015, 152, 63-82.]. Second, GBM partly consists of infiltrating cells that cannot easily be all removed by surgery. Third, GBM early diagnosis is not carried out routinely. Sensitive imaging techniques, such as MRI are still too expensive to be carried out on a regular basis over the whole population. Fourth, the optimization of a clinical protocol for GBM treatment requires the use of an accurate and representative preclinical GBM model. Currently used mouse and rat models are not appropriate because their tumors are typically ˜10^3-10^4 smaller than human GBM [Biasibetti, E.; Valazza, A.; Capucchio, M. T.; Annovazzi, L.; Battaglia. L.; Chirio, D.; Gallarate, M.; Mellai, M.; Muntoni, E.; Peira, E.; Riganti, C.; Schiffer, D.; Panciani, P.; Lanotte, M. “Comparison of Allogeneic and Syngeneic Rat Glioma Models by Using MRI and Histopathologic Evaluation” Comp. Med. 2017, 67, 147-156.]. […]

Cn1nnc2c(C(N)=O)ncn2c1=O [TMZ, temozolomide]
concentration in brain and cerebrospinal fluid, % of the plasma concentration ([1]; 35 patients with malignant gliomas): approximately 20%
elimination half-life ([1]; oral administration): approximately 1.8 hours
experimentally estimated log BB (Brain-Blood Distribution) [2]: around −0.7
